Experimental data: patent publication US10968236B2, “TYK2 inhibitors and uses thereof” (Nimbus Lakshmi, Inc., priority 2015, dated 2021)

Assays:
TYK2 = TYK2 (Homo sapiens (Human), UniProt P29597); test: Tyk2 activity inhibition assay (radioactive kinase / Caliper assay); type: biochemical
Method: (§1) Peptide substrate, [KKSRGDYMTMQIG], (20 μM) is prepared in reaction buffer (20 mM Hepes pH 7.5, 10 mM MgCl2, 1 mM EGTA, 0.02% Brij35, 0.02 mg/mL BSA, 0.1 mM […], 2 mM DTT, 1% DMSO. TYK2 (Invitrogen) kinase is added, followed by compounds in DMSO. 33PATP is added to initiate the reaction in ATP at 10 μM. Kinase reaction is incubated for 120 min at room temp and reactions are spotted onto P81 ion exchange paper (Whatman #3698-915), and then washed extensively in 0.75% phosphoric acid, prior to reading the radioactivity counts. For JAK2 (Invitrogen) kinase assay the peptide substrate poly[Glu:Tyr] (4:1), 0.2 mg/ml is used, in the reaction carried out the same as for TYK2.
(§2) The caliper machine employs an off chip mobility shift assay to detect phosphorylated peptide substrates from kinase assays, using microfluidics technology. The assays are carried out at ATP concentration equivalent to the ATP Km, and at 1 mM ATP. Compounds are serially diluted in DMSO then further diluted in assay buffer (25 mM HEPES, pH 7.5, 0.01% Brij-35, 0.01% Triton, 0.5 mM EGTA). 5 ul of diluted compound was added into wells first, then 10 ul of enzyme mix was added into wells, followed by 10 uL of substrate mix (peptide and ATP in 10 mM MgCl2) to start reaction. Reaction was incubated at 28° C. for 25 min and then added 25 ul stop buffer (100 mM HEPES, 0.015% Brij-35, 50 mM EDTA), followed by reading with Caliper. JAK2 at 1 nM final concentration and TYK2 at 9.75 nM are from Carna, and substrates used are ATP at 20 and 16 uM, respectively. JAK2 assay uses peptide 22 and TYK2 uses peptide 30 (Caliper), each at 3 uM.
(§3) The compound numbers correspond to the compound numbers in Table 1. Compounds having an activity designated as “A” provided an Ki≤0.01 μM; compounds having an activity designated as “B” provided an Ki of 0.01-0.1 μM; compounds having an activity designated as “C” provided an Ki of 0.1-1.0 μM; and compounds having an activity designated as “D” provided an Ki≥1.0 μM.

JAK2 = JAK2 (Homo sapiens (Human), UniProt O60674); test: JAK2 activity inhibition assay (radioactive kinase / Caliper assay); type: biochemical
JAK2, sequence (O60674 whole entry): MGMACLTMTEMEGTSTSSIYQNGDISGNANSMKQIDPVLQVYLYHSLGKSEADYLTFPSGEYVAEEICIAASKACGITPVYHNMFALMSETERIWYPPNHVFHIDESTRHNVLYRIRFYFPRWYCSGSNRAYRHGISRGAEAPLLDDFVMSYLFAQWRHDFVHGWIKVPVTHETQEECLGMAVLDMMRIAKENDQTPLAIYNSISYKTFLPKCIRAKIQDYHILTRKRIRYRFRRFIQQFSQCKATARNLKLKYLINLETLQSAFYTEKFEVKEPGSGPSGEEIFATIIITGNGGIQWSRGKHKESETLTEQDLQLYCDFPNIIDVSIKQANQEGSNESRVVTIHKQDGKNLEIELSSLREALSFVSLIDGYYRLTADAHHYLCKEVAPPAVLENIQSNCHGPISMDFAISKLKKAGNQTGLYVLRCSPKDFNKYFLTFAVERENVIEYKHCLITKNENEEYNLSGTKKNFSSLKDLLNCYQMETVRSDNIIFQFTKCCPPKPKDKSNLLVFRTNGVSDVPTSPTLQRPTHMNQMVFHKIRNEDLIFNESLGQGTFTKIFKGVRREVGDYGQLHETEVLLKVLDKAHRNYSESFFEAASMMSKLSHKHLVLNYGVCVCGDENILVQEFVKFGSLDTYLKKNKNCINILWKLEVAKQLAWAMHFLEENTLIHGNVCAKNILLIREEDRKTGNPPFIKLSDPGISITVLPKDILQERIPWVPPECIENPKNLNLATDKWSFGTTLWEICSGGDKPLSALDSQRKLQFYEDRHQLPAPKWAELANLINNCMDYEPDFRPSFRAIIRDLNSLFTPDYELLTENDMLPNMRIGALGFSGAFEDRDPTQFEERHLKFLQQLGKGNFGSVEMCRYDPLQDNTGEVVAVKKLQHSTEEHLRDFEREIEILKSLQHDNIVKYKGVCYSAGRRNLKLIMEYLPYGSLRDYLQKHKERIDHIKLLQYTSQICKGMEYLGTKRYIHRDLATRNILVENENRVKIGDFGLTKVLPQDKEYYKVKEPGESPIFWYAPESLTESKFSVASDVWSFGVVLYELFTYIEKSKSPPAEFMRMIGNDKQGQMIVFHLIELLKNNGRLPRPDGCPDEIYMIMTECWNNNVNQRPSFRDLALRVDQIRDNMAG
Method: as §1, §2, §3

TYK2, sequence (P29597 whole entry): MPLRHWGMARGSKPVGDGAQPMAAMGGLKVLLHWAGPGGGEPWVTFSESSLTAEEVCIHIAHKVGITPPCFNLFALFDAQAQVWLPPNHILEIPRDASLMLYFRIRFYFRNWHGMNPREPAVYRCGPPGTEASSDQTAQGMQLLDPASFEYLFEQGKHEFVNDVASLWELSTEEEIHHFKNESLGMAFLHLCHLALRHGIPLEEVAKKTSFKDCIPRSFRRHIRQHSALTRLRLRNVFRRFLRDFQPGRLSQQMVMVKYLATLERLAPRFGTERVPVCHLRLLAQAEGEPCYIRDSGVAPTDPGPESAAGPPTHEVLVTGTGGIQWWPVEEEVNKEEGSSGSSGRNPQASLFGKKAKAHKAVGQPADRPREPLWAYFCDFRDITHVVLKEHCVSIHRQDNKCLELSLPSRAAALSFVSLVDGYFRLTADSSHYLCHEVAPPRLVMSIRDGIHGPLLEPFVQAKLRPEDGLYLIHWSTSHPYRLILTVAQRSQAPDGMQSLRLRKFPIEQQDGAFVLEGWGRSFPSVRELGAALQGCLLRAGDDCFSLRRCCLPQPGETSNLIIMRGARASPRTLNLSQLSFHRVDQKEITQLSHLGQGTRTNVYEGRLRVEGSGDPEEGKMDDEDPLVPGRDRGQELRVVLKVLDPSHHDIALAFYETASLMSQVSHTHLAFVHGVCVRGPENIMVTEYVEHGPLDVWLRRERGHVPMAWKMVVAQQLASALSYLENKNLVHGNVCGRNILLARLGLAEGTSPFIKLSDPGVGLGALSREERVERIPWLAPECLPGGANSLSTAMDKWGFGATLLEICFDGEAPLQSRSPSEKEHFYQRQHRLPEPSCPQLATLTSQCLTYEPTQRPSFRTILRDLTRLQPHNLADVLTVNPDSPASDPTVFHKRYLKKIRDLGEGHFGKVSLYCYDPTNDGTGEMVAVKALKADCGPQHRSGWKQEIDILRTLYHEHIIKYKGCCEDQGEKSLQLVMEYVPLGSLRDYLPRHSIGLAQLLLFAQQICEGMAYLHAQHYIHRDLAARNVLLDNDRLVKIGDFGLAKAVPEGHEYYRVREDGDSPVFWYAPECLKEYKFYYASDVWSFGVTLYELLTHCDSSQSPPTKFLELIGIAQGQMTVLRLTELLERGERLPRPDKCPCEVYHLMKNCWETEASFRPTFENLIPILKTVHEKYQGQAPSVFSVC

Ki (TYK2) [nM] | Ki (JAK2) [nM] | Structure (SMILES)
≤ 10 | 10 to 100 | O=C1NCc2nc(-c3c(F)cccc3F)cc(Nc3ccc(N4CCC5(CCCCO5)CC4)cn3)c21 [Compound I-53, 4-((5-(1-oxa-9-azaspiro[5.5]undecan-9-yl)pyridin-2-yl)amino)-2-(2,6-difluorophenyl)-6,7-dihydro-5H-pyrrolo[3,4-b]pyridin-5-one]
≤ 10 | ≤ 10 | N#Cc1cccc(F)c1-c1cc(Nc2ccc(N3CC[C@@]4(C[C@@H](O)CO4)C3)cn2)c2c(n1)CNC2=O [Compound I-90]
≤ 10 | 10 to 100 | O=C1NCc2nc(-c3c(F)cccc3F)cc(Nc3ccc(C(O)(C(F)(F)F)C(F)(F)F)cc3)c21 [Compound I-66, 2-(2,6-difluorophenyl)-4-((4-(1,1,1,3,3,3-hexafluoro-2-hydroxy-propan-2-yl)phenyl)amino)-6,7-dihydro-5H-pyrrolo[3,4-b]pyridin-5-one]
≤ 10 | 100 to 1000 | CC(O)(C(=O)O)c1ccc(Nc2nc(-c3c(F)cccc3F)nc3c2C(=O)NC3)cc1 (stereo not drawn) [Compound I-6, 2-(4-((2-(2,6-difluorophenyl)-5-oxo-6,7-dihydro-5H-pyrrolo-[3,4-d]pyrimidin-4-yl)amino)phenyl)-2-hydroxypropanoic acid]
≤ 10 | 10 to 100 | O=C1NCc2nc(-c3c(F)cccc3F)cc(Nc3ccc4c(c3)CS(=O)(=O)C4)c21 [Compound I-86, 2-(2,6-difluorophenyl)-4-((2,2-dioxido-1,3-dihydro-benzo[c]thio-phen-5-yl)amino)-6,7-dihydro-5H-pyrrolo[3,4-b]pyridin-5-one]
≤ 10 | ≥ 1000 | CC(N)(C(=O)O)c1ccc(Nc2nc(-c3c(F)cccc3F)nc3c2C(=O)NC3)cc1 (stereo not drawn) [Compound I-32, 2-amino-2-(4-((2-(2,6-difluorophenyl)-5-oxo-6,7-dihydro-5H-pyrrolo[3,4-d]pyrimidin-4-yl)amino)phenyl)propanoic acid]
≤ 10 | 100 to 1000 | CCNC(=O)C(O)(CC(F)(F)F)c1ccc(Nc2nc(-c3c(F)cccc3F)nc3c2C(=O)NC3)cc1 (stereo not drawn) [Compound I-26, 2-(4-((2-(2,6-difluorophenyl)-5-oxo-6,7-dihydro-5H-pyrrolo[3,4-d]pyrimidin-4-yl)amino)phenyl)-N-ethyl-4,4,4-trifluoro-2-hydroxybutanamide]
≤ 10 | 100 to 1000 | CCNC(=O)C(C)(O)c1ccc(Nc2nc(-c3c(F)cccc3F)nc3c2C(=O)NC3)cc1 (stereo not drawn) [Compound I-14, 2-(4-((2-(2,6-difluorophenyl)-5-oxo-6,7-dihydro-5H-pyrrolo[3,4-d]pyrimidin-4-yl)amino)phenyl)-N-ethyl-2-hydroxypropanamide]
100 to 1000 | 100 to 1000 | CN1C(=O)[C@@](C)(c2ccc(Nc3nc(-c4c(F)cccc4F)nc4c3C(=O)NC4)cc2)Oc2ccccc21 [Compound I-41, (R)-2-(4-((2-(2,6-difluorophenyl)-5-oxo-6,7-dihydro-5H-pyrrolo[3,4-d]pyrimidin-4-yl)amino)phenyl)-2,4-dimethyl-2H-benzo[b][1,4]oxazin-3(4H)-one]
≤ 10 | ≤ 10 | O=C1NCc2nc(-c3c(F)cccc3F)cc(Nc3ccc(N4CCOCC45CC5)cn3)c21 [Compound I-47, 4-((5-(7-oxa-4-azaspiro[2.5]octan-4-yl)pyridin-2-yl)amino)-2-(2,6-difluorophenyl)-6,7-dihydro-5H-pyrrolo[3,4-b]pyridin-5-one]
≤ 10 | 10 to 100 | O=C1NCc2nc(-c3c(F)cccc3F)cc(Nc3ccc(C(=O)N4CCC5(CC4)CC5)cc3)c21 [Compound I-57, 4-((4-(6-azaspiro[2.5]octane-6-carbonyl)phenyl)amino)-2-(2,6-difluorophenyl)-6,7-dihydro-5H-pyrrolo[3,4-b]pyridin-5-one]
≤ 10 | 100 to 1000 | O=C1NCc2nc(-c3c(F)cccc3F)nc(Nc3ccc(C(O)C(F)(F)F)cc3)c21 (stereo not drawn) [Compound I-29, 2-(2,6-difluorophenyl)-4-((4-(2,2,2-trifluoro-1-hydroxy-ethyl)phenyl)amino)-6,7-dihydro-5H-pyrrolo[3,4-d]pyrimidin-5-one]
≤ 10 | 10 to 100 | CC(O)(c1ccc(Nc2cc(-c3c(F)cccc3F)nc3c2C(=O)NC3)nc1)C(F)(F)F (stereo not drawn) [Compound I-78, 2-(2,6-difluorophenyl)-4-((5-(1,1,1-trifluoro-2-hydroxypropan-2-yl)pyridin-2-yl)amino)-6,7-dihydro-5H-pyrrolo[3,4-b]pyridin-5-one]
10 to 100 | ≥ 1000 | O=C1NCc2nc(-c3c(F)cccc3F)cc(Nc3ccc4c(c3)OC(F)(F)O4)c21 [Compound I-69, 4-((2,2-difluorobenzo[d][1,3]dioxol-5-yl)amino)-2-(2,6-difluoro-phenyl)-6,7-dihydro-5H-pyrrolo[3,4-b]pyridin-5-one]
10 to 100 | 10 to 100 | CCNC(=O)C(C)(N)c1ccc(Nc2nc(-c3c(F)cccc3F)nc3c2C(=O)NC3)cc1 (stereo not drawn) [Compound I-9, 2-amino-2-(4-((2-(2,6-difluorophenyl)-5-oxo-6,7-dihydro-5H-pyrrolo[3,4-d]pyrimidin-4-yl)amino)phenyl)-N-ethylpropanamide]
≤ 10 | 10 to 100 | CN1CCc2cc(Nc3cc(-c4c(F)cccc4F)nc4c3C(=O)NC4)ccc2C1=O [Compound I-64, 6-((2-(2,6-difluorophenyl)-5-oxo-6,7-dihydro-5H-pyrrolo[3,4-b]pyridin-4-yl)amino)-2-methyl-3,4-dihydroisoquinolin-1 (2H)-one]
≤ 10 | 10 to 100 | O=C1NCc2nc(-c3c(F)cccc3F)cc(Nc3ccc4c(n3)NCC4)c21 [Compound I-22, 2-(2,6-difluorophenyl)-4-((2,3-dihydro-1H-pyrrolo[2,3-b]pyridin-6-yl)amino)-6,7-dihydro-5H-pyrrolo[3,4-b]pyridin-5-one]
 | 100 to 1000 | C[C@@](O)(c1ccc(Nc2nc(-c3c(F)cccc3F)nc3c2C(=O)NC3)cc1)C(F)(F)F [Compound I-35, (R)-2-(2,6-difluorophenyl)-4-((4-(1,1,1-trifluoro-2-hydroxy-propan-2-yl)phenyl)amino)-6,7-dihydro-5H-pyrrolo[3,4-d]pyrimidin-5-one]
 | 100 to 1000 | CCNC(=O)[C@@](O)(CC(F)(F)F)c1ccc(Nc2nc(-c3c(F)cccc3F)nc3c2C(=O)NC3)cc1 [Compound I-28, (R)-2-(4-((2-(2,6-difluorophenyl)-5-oxo-6,7-dihydro-5H-pyrrolo[3,4-d]pyrimidin-4-yl)amino)phenyl)-N-ethyl-4,4,4-trifluoro-2-hydroxybutanamide]
 | 100 to 1000 | C[C@@](O)(c1ccc(Nc2cc(-c3c(F)cccc3F)nc3c2C(=O)NC3)cc1)C(F)(F)F [Compound I-44, (R)-2-(2,6-difluorophenyl)-4-((4-(1,1,1-trifluoro-2-hydroxy-nronan-2-yl)phenyl)amino)-6,7-dihydro-5H-pyrrolo[3,4-b]pyridin-5-one]
 | 100 to 1000 | O=C1NCc2nc(-c3c(F)cccc3F)nc(Nc3ccc([C@H](O)C(F)(F)F)cc3)c21 [Compound I-30, (S)-2-(2,6-difluorophenyl)-4-((4-(2,2,2-trifluoro-1-hydroxyethyl)phenyl)amino)-6,7-dihydro-5H-pyrrolo[3,4-d]pyrimidin-5-one]
 | 10 to 100 | CCNC(=O)[C@](O)(CC(F)(F)F)c1ccc(Nc2nc(-c3c(F)cccc3F)nc3c2C(=O)NC3)cc1 [Compound I-27, (S)-2-(4-((2-(2,6-difluorophenyl)-5-oxo-6,7-dihydro-5H-pyrrolo[3,4-d]pyrimidin-4-yl)amino)phenyl)-N-ethyl-4,4,4-trifluoro-2-hydroxybutanamide]
 | 10 to 100 | O=C1NCc2nc(-c3c(F)cccc3F)nc(Nc3ccc([C@@H](O)C(F)(F)F)cc3)c21 [Compound I-31, (R)-2-(2,6-difluorophenyl)-4-((4-(2,2,2-trifluoro-1-hydro-xyethyl)phenyl)amino)-6,7-dihydro-5H-pyrrolo[3,4-d]pyrimidin-5-one]
100 to 1000 |  | CN1C(=O)[C@](C)(c2ccc(Nc3nc(-c4c(F)cccc4F)nc4c3C(=O)NC4)cc2)Oc2ccccc21 [Compound I-40, (S)-2-(4-((2-(2,6-difluorophenyl)-5-oxo-6,7-dihydro-5H-pyrrolo[3,4-d]pyrimidin-4-yl)amino)phenyl)-2,4-dimethyl-2H-benzo[b][1,4]oxazin-3(4H)-one]
 | 10 to 100 | C[C@](O)(c1ccc(Nc2cc(-c3c(F)cccc3F)nc3c2C(=O)NC3)cc1)C(F)(F)F [Compound I-43, (S)-2-(2,6-difluorophenyl)-4-((4-(1,1,1-trifluoro-2-hydroxypropan-2-yl)phenyl)amino)-6,7-dihydro-5H-pyrrolo[3,4-b]pyridin-5-one]
